# Reference: patent US20240165112A1, “THERAPY FOR THE TREATMENT OF CANCER” (Bristol-Myers Squibb Company, priority 2022, published 2024)
# Assays:
# [1] = tested on: CCL2 secretion by primary human macrophages; assay: CCL2 secretion in primary human macrophages (ELISA); type: cell-based; conditions: normalized to DMSO
# Description: FIG. 11 illustrates the effect of Compound 1 Treatment on CCL2 Secretion in Primary Human Macrophages. Primary human monocytes were differentiated into macrophages and treated with varying doses of DMSO or Compound 1. The CCL2 levels were measured in the cell supernatant by ELISA 24 hours after drug treatment. The CCL2 secretion levels were normalized to the equivalent DMSO concentration. Data are plotted as the mean and standard deviation of 3 donors and representative of 2 independent experiments. *P<0.05; ** P<0.01, ***P<0.001; ****P<0.0001 by student's t-test. Abbreviations: CCL2, C—C motif chemokine ligand 2; DMSO, dimethyl sulfoxide; ELISA, enzyme-linked immunosorbent assay.
# Peripheral blood mononuclear cells (PBMCs) were isolated from human blood using aseptic conditions. CD14+ monocytes were enriched from PBMC using Miltenyi Biotech kit (using CD14 microbeads). Fresh CD14+ monocytes were differentiated to macrophages using complete RPMI1640 medium with M-CSF recombinant human protein at the final concentration of 50 ng/mL. At Day 3-4, media containing M-CSF was added on monocytes/macrophages and incubated for 6-7 days in 5% CO2 incubator at 37° C. 10 mL 10 mM EDTA or Detachin was added to the culture dish containing macrophages, and let sit for 20-30 minutes, or until cells dissociate from the dish at room temperature. […]
# [2] = tested on: COL1A1, PAI-1, TNC, LRRC15 transcripts in A549 lung cancer cells; assay: TGF-β-induced transcripts in A549 tumor cells (RT-PCR); type: cell-based, human
# Description: Indicated gene transcripts were assessed by RT-PCR relative to GAPDH. Data were normalized to expression after TGF-β-treatment in the presence of only DMSO. Data are presented as mean of 3 biological replicates, and error bars indicate standard deviation. The graphs are representative of at least 2 independent experiments. *P<0.05; ** P<0.01, ***P<0.001; ****P<0.0001 by student's t-test.
# Cells were directly lysed in Qiagen™ Buffer RLT Plus with 1% 2-Mercaptoethanol added. Total RNA from tumor samples and cell lines was isolated using Qiagen™ AllPrep® DNA/RNA 96 Kit according to manufacturer's protocol. Isolated RNA was analyzed with NanoDrop™ ONE Spectrophotometer for concentration. The RNA integrity was also analyzed on Agilent TapeStation 4200.
# Complimentary deoxyribonucleic acid (cDNA) was prepared by using Invitrogen™ SuperScript™ III First-Strand Synthesis SuperMix for qRT-PCR. Up to 1 μg of RNA was prepared according to manufacturer's protocol, using Applied Biosystems™ Veriti™ 96-well thermal cycler. The reverse transcription (RT) program used for cDNA synthesis: • 1. 25° C., 10 minutes • 2. 50° C., 30 minutes • 3. 85° C., 5 minutes • 4. Add E. Coli RNase H, 37° C., 20 minutes • 5. Hold at 4° C. Quantitative Reverse Transcription Polymerase Chain Reaction (qRT-PCR).
# The cDNA was diluted 1:3 fold in nuclease-free water for quantitative polymerase chain reaction (qPCR) setup. Human and mouse TaqMan™ assays for targeted genes were ordered through Applied Biosystems™. TaqMan™ assay selection was based on manufacturer's recommendation. The qRT-PCR was set up using Applied Biosystems™ TaqMan™ Fast Advanced Master Mix according to manufacturer's protocol. The qRT-PCR was run on QuantStudio™ 12 Flex with fast run mode: • 1. 95° C., 20 seconds • 2. 95° C., 1 second • 3. 60° C., 20 seconds • 4. Repeat steps 2-3, 39 times
# The qPCR data was analyzed, and all cycle threshold (Ct) values were normalized to glyceraldehyde-3-phosphate dehydrogenase (GAPDH) (ΔCt). Analysis was plotted and presented using GraphPad Prism (GraphPad, Version 8.4.1, San Diego, CA).
# The RNA expression was assessed 24 hours after TGF-β treatment.
# [3] = 30 μM Compound 1, 10 ng/mL TGF-β, 24 hours
structure (smiles),measurement,setting,value
"C[C@@H]1CC[C@@H](Nc2nc(NC(C)(C)C)ncc2C(N)=O)C[C@H]1O [Compound 1, 2-(tert-butylamino)-4-((1R,3R,4R)-3-hydroxy-4-methylcyclohexylamino)-pyrimidine-5-carboxamide]",reduction in CCL2,"[1]; 7.4 μM Compound 1, supernatant",36%
same,reduction in CCL2,"[1]; 20 μM Compound 1, supernatant",43%
same,COL1A1 reduced relative to TGF-β stimulation in the presence of DMSO alone,[2]; [3],56%
same,PAI-1 reduced relative to TGF-β stimulation in the presence of DMSO alone,[2]; [3],64%
same,TNC reduced relative to TGF-β stimulation in the presence of DMSO alone,[2]; [3],90%
same,Tenascin C upregulation with TGF-β treatment,"[2]; Compound 1 at 30 μM, 15 μM or 5 μM",inhibited by all doses of Compound 1 tested
